# From article PMC6832920, “Synthesis, Docking Studies, and In Vitro Evaluation of Some Novel Thienopyridines and Fused Thienopyridine–Quinolines as Antibacterial Agents and DNA Gyrase Inhibitors” (Molecules, 2019)
# What was measured:
# Bacillus subtilis 6633 [1] = test: MIC determination by dilution procedure; type: cell-based; conditions: B. subtilis 6633, dilutions 125-1.95 μg/mL, read-out: minimum inhibitory concentration (MIC)
# Description: (§1) A 100 μL measure of NB containing each test microorganism was added to the sterile Petri dishes. Antibacterial testing was carried out on all compounds (3a,b–14) using the agar disc-diffusion method [40]. Sterile nutrients were inoculated with 100 μL cell suspension of the chosen test microorganism and poured into Petri dishes (20 cm diameter). Filter paper discs (Whatman, No.3, diameter 5 mm) were loaded with 10 μL containing 100 μg of the tested compounds, as well as the standard drug. Composite compound disks were placed on the surface of inoculated agar plates and kept at low temperatures before incubation in order to support the swelling and diffusion of the microbial growth. The plates were incubated at 37 °C in the incubator. Experiments were performed in duplicate and the diameters of inhibition zones were measured after 24 h. A diameter of inhibition zone (DIZ) assay was performed to evaluate the antimicrobial potential of the compounds against the tested organisms compared with reference antibiotics.
# [2] = system: Pseudomonas aeruginosa 27853; test: MIC determination by dilution procedure; type: cell-based; conditions: Pseudomonas aeruginosa, 27853, P. aeruginosa 27853; dilutions 125-1.95 μg/mL; read-out: minimum inhibitory concentration (MIC)
# Bacillus cereus 33018 [3] = test: MIC determination by dilution procedure; type: cell-based; conditions: B. cereus 33018, dilutions 125-1.95 μg/mL, read-out: minimum inhibitory concentration (MIC)
# Description: as §1
# Escherichia coli 8739 [4] = test: MIC determination by dilution procedure; type: cell-based; conditions: E. coli 8739, dilutions 125-1.95 μg/mL, read-out: minimum inhibitory concentration (MIC)
# Escherichia coli 8739 [5] = test: agar disc-diffusion antibacterial assay; type: cell-based; conditions: E. coli 8739, disc loaded with 100 μg, 37 °C, 24 h, read-out: diameter of inhibition zone
# Description: (§2) The clinical control strains of Gram-negative bacteria (Escherichia coli 8739, Salmonella typhimurium 14028, Pseudomonas aeruginosa 27853) and Gram-positive bacteria (Bacillus subtilis 6633, Bacillus cereus 33018, Staphylococcus aureus 25923), were obtained from microbial inoculums by subculturing microorganisms into nutrient broth (NB) at 37 °C for 18 h, and were adjusted to 0.125 A° at 625 nm (equivalent to a McFarland 0.5) in 2-fold NB. A 100 μL measure of NB containing each test microorganism was added to the sterile Petri dishes. Antibacterial testing was carried out on all compounds (3a,b–14) using the agar disc-diffusion method [40]. Sterile nutrients were inoculated with 100 μL cell suspension of the chosen test microorganism and poured into Petri dishes (20 cm diameter). Filter paper discs (Whatman, No.3, diameter 5 mm) were loaded with 10 μL containing 100 μg of the tested compounds, as well as the standard drug. Composite compound disks were placed on the surface of inoculated agar plates and kept at low temperatures before incubation in order to support the swelling and diffusion of the microbial growth. The plates were incubated at 37 °C in the incubator. Experiments were performed in duplicate and the diameters of inhibition zones were measured after 24 h. A diameter of inhibition zone (DIZ) assay was performed to evaluate the antimicrobial potential of the compounds against the tested organisms compared with reference antibiotics.
# Bacillus subtilis 6633 [6] = test: agar disc-diffusion antibacterial assay; type: cell-based; conditions: B. subtilis 6633, disc loaded with 100 μg, 37 °C, 24 h, read-out: diameter of inhibition zone
# Description: as §1
# [7] = system: Salmonella typhimurium 14028; test: MIC determination by dilution procedure; type: cell-based; conditions: Salmonella enterica; S. typhimurium 14028; dilutions 125-1.95 μg/mL; read-out: minimum inhibitory concentration (MIC)
# Description: (§3) The clinical control strains of Gram-negative bacteria (Escherichia coli 8739, Salmonella typhimurium 14028, Pseudomonas aeruginosa 27853) and Gram-positive bacteria (Bacillus subtilis 6633, Bacillus cereus 33018, Staphylococcus aureus 25923), were obtained from microbial inoculums by subculturing microorganisms into nutrient broth (NB) at 37 °C for 18 h, and were adjusted to 0.125 A° at 625 nm (equivalent to a McFarland 0.5) in 2-fold NB. A 100 μL measure of NB containing each test microorganism was added to the sterile Petri dishes. Antibacterial testing was carried out on all compounds (3a,b–14) using the agar disc-diffusion method [40]. Sterile nutrients were inoculated with 100 μL cell suspension of the chosen test microorganism and poured into Petri dishes (20 cm diameter). Filter paper discs (Whatman, No.3, diameter 5 mm) were loaded with 10 μL containing 100 μg of the tested compounds, as well as the standard drug. Composite compound disks were placed on the surface of inoculated agar plates and kept at low temperatures before incubation in order to support the swelling and diffusion of the microbial growth. The plates were incubated at 37 °C in the incubator. Experiments were performed in duplicate and the diameters of inhibition zones were measured after 24 h.
# Bacillus cereus 33018 [8] = test: agar disc-diffusion antibacterial assay; type: cell-based; conditions: B. cereus 33018, disc loaded with 100 μg, 37 °C, 24 h, read-out: diameter of inhibition zone
# Description: as §1
# [9] = system: Salmonella typhimurium 14028; test: agar disc-diffusion antibacterial assay; type: cell-based; conditions: Salmonella enterica; S. typhimurium 14028; disc loaded with 100 μg; 37 °C, 24 h; read-out: diameter of inhibition zone
# Description: as §3
# [10] = system: Staphylococcus aureus 25923; test: MIC determination by dilution procedure; type: cell-based; conditions: Staphylococcus aureus, 25923, S. aureus 25923; dilutions 125-1.95 μg/mL; read-out: minimum inhibitory concentration (MIC)
# Description: as §1
# [11] = system: Staphylococcus aureus 25923; test: agar disc-diffusion antibacterial assay; type: cell-based; conditions: S. aureus 25923, disc loaded with 100 μg, 37 °C, 24 h, read-out: diameter of inhibition zone
# Description: as §2
# [12] = system: Pseudomonas aeruginosa 27853; test: agar disc-diffusion antibacterial assay; type: cell-based; conditions: P. aeruginosa 27853, disc loaded with 100 μg, 37 °C, 24 h, read-out: diameter of inhibition zone
# Description: as §2
# DNA gyrase from E. coli = target: T1, DNA gyrase from E. coli (Escherichia coli, UniProt P0AES6); test: Escherichia coli DNA gyrase supercoiling inhibition assay; type: biochemical
# T1 construct: purchased TopoGEN
# [13] = system: methicillin-resistant Staphylococcus aureus (MRSA); test: inhibition zones against MRSA (disc diffusion); type: cell-based
SMILES,MIC (Bacillus subtilis 6633 [1]),MIC [2],MIC (Bacillus cereus 33018 [3]),MIC (Escherichia coli 8739 [4]),zone of inhibition at 100 µg/disc (Escherichia coli 8739 [5]),zone of inhibition at 100 µg/disc (Bacillus subtilis 6633 [6]),MIC [7],zone of inhibition at 100 µg/disc (Bacillus cereus 33018 [8]),zone of inhibition at 100 µg/disc [9],MIC [10],zone of inhibition at 100 µg/disc [11],zone of inhibition at 100 µg/disc [12],IC50 (DNA gyrase from E. coli),melting point,zone of inhibition against MRSA [13]
"CC1(C)S[C@@H]2[C@H](NC(=O)[C@H](N)c3ccc(O)cc3)C(=O)N2[C@H]1C(=O)O [Amoxicillin, amoxicillin trihydrate, reference compound]",15.6 mg/L,15.6 mg/L,15.6 mg/L,15.6 mg/L,20 mm,17 mm,15.6 mg/L,19 mm,21 mm,15.6 mg/L,19 mm,18 mm,,,
"COc1ccc(-c2cc(-c3ccco3)nc3sc(C(N)=O)c(N)c23)cc1 [Compound 3a, 3-Amino-6-(furan-2-yl)-4-(4-methoxyphenyl)thieno[2,3-b]pyridine-2-carboxamide]",31.2 mg/L,15.6 mg/L,31.2 mg/L,15.6 mg/L,18 mm,10 mm,15.6 mg/L,13 mm,15 mm,31.2 mg/L,12 mm,15 mm,2.26 ± 0.19 µM,,
"NC(=O)c1sc2nc(-c3ccco3)cc(-c3cccs3)c2c1N [Compound 3b, 3-Amino-6-(furan-2-yl)-4-(thiophen-2-yl)thieno[2,3-b]pyridine-2-carboxamide]",31.2 mg/L,31.2 mg/L,15.6 mg/L,15.6 mg/L,19 mm,12 mm,15.6 mg/L,18 mm,18 mm,31.2 mg/L,13 mm,13 mm,4.5 ± 0.32 µM,253 °C,
"COc1ccc(-c2cc(-c3ccco3)nc3sc(C(N)=O)c(N=C4CCCCC4)c23)cc1 [Compound 4a, 3-(Cyclohexylideneamino)-6-(furan-2-yl)-4-(4-methoxyphenyl)thieno[2,3-b]pyridine-2-carboxamide]",15.6 mg/L,31.2 mg/L,15.6 mg/L,15.6 mg/L,18 mm,15 mm,15.6 mg/L,16 mm,15 mm,15.6 mg/L,18 mm,13 mm,3.69 ± 0.15 µM,,13 mm
"NC(=O)c1sc2nc(-c3ccco3)cc(-c3cccs3)c2c1N=C1CCCCC1 [Compound 4b, 3-(Cyclohexylideneamino)-6-(furan-2-yl)-4-(thiophen-2-yl)thieno[2,3-b]pyridine-2-carboxamide]",31.2 mg/L,,,31.2 mg/L,12 mm,10 mm,15.6 mg/L,,15 mm,31.2 mg/L,12 mm,,,320 to 322 °C,
"Nc1c2c(nc3c1sc1nc(-c4ccco4)cc(-c4cccs4)c13)CCCC2 [Compound 5b, 2-(Furan-2-yl)-4-(thiophen-2-yl)-6,7,8,9-tetrahydropyrido[3′,2′:4,5]thieno[3,2-b]quinolin-10-amine]",31.2 mg/L,15.6 mg/L,15.6 mg/L,15.6 mg/L,15 mm,12 mm,15.6 mg/L,16 mm,17 mm,31.2 mg/L,13 mm,14 mm,16.7 ± 0.88 µM,248 °C,
"COc1ccc(-c2cc(-c3ccco3)nc3sc4c(NC(=O)CCl)c5c(nc4c23)CCCC5)cc1 [Compound 6a, 2-Chloro-N-(2-(furan-2-yl)-4-(4-methoxyphenyl)-6,7,8,9-tetrahydropyrido[3′,2′:4,5]thieno[3,2-b]quinolin-10-yl)acetamide]",31.2 mg/L,31.2 mg/L,31.2 mg/L,31.2 mg/L,13 mm,10 mm,,13 mm,,31.2 mg/L,12 mm,13 mm,13.7 ± 0.65 µM,342 to 343 °C,
"O=C(CCl)Nc1c2c(nc3c1sc1nc(-c4ccco4)cc(-c4cccs4)c13)CCCC2 [Compound 6b, 2-Chloro-N-(2-(furan-2-yl)-4-(thiophen-2-yl)-6,7,8,9-tetrahydropyrido[3′,2′:4,5]thieno[3,2-b]quinolin-10-yl)acetamide]",15.6 mg/L,31.2 mg/L,15.6 mg/L,15.6 mg/L,16 mm,15 mm,31.2 mg/L,15 mm,12 mm,,,12 mm,5.95 ± 0.34 µM,338 °C,
"NNCC(=O)Nc1c2c(nc3c1sc1nc(-c4ccco4)cc(-c4cccs4)c13)CCCC2 [Compound 7b, N-(2-(furan-2-yl)-4-(thiophen-2-yl)-6,7,8,9-tetrahydropyrido[3′,2′:4,5]thieno[3,2-b]quinolin-10-yl)-2-hydrazinylacetamide]",62.5 mg/L,31.2 mg/L,31.2 mg/L,,,8 mm,31.2 mg/L,11 mm,10 mm,31.2 mg/L,10 mm,12 mm,,306 °C,
"COc1ccc(-c2cc(-c3ccco3)nc3sc4c(N=Cc5ccc(N(C)C)cc5)c5c(nc4c23)CCCC5)cc1 [Compound 12a, 4-(((2-(furan-2-yl)-4-(4-methoxyphenyl)-6,7,8,9-tetrahydropyrido[3′,2′:4,5]thieno[3,2-b]quinolin-10-yl)imino)methyl)-N,N-dimethylaniline]",31.2 mg/L,62.5 mg/L,31.2 mg/L,31.2 mg/L,11 mm,13 mm,62.5 mg/L,11 mm,8 mm,31.2 mg/L,10 mm,9 mm,,149 °C,
"CC(=O)CC(=O)Nc1c2c(nc3c1sc1nc(-c4ccco4)cc(-c4cccs4)c13)CCCC2 [Compound 13, N-(2-(furan-2-yl)-4-(thiophen-2-yl)-6,7,8,9-tetrahydropyrido[3′,2′:4,5]thieno[3,2-b]quinolin-10-yl)-3-oxobutanamide]",15.6 mg/L,31.2 mg/L,15.6 mg/L,62.5 mg/L,8 mm,15 mm,62.5 mg/L,16 mm,7 mm,31.2 mg/L,12 mm,11 mm,,217 to 218 °C,
"CC1=NN=C(Nc2c3c(nc4c2sc2nc(-c5ccco5)cc(-c5cccs5)c24)CCCC3)C1 [Compound 14, 2-(furan-2-yl)-N-(5-methyl-4H-pyrazol-3-yl) -4-(thiophen-2-yl)-6,7,8,9-tetrahydropyrido[3′,2′:4,5]thieno[3,2-b]quinolin-10-amine]",15.6 mg/L,31.2 mg/L,15.6 mg/L,15.6 mg/L,15 mm,16 mm,31.2 mg/L,17 mm,12 mm,31.2 mg/L,13 mm,10 mm,11.7 ± 0.93 µM,274 °C,
"CNC(C)C1CCC(N)C(OC2C(N)CC(N)C(OC3OCC(C)(O)C(NC)C3O)C2O)O1 (centres unmarked) [Gentamicin, gentamicin, reference compound]",,,,,,,,,,,,,,,15 mm
